The nature of series [1]: Solubility in water. Type of series: physicochemical. The following applies: salt form as named. The source says:
2-Amino-5,6-dichloro-3,4-dihydroquinazoline (compound (E) wherein X and Y are both Cl) is the preferred compound for use in reducing the platelet count in patients and is preferably provided as the hydrobromide salt which is water soluble.

The subject of series [2] is circulating platelet levels. Put plainly: Daily intraperitoneal injection in mice, circulating platelet levels and safety. Type of series: in vivo. On the procedure: Administration of 100 μg/day of the preferred compound was sufficient to decrease platelet counts within 24-48 hours stabilizing to 50% of normal by day 5.
The test system of series [3] is megakaryocytic lineage. Put plainly: Inhibition of megakaryocytic endoreplication. It is filed as cell-based.
The subject of series [4] is CD15+ myeloid lineage. Put plainly: Effect on the CD15+ myeloid lineage in vitro. Type of series: cell-based.
The subject of series [5] is platelet aggregation. Briefly: Platelet aggregation. It is filed as cell-based. The following applies: even at high concentrations (10 μg/mL).
Series [6] can be described thus: Cardiovascular screening and side effect profile of the compound. It is filed as in vivo.
Series [7] deals with platelet count. Put plainly: Platelet reducing properties. As to conditions: in vivo.
Series [8] in a line: In vitro metabolism of Anagrelide in rat liver microsomes. Type of series: in vitro ADME. The source says:
(§1) Metabolism of Anagrelide was examined in a number of in vitro systems including rat and human liver microsomes, human whole blood, human bone marrow cells and rat intestinal mucosa. […] It appears that in vivo metabolism occurs by a route that cannot be readily mimicked in vitro. It is hypothesized that the first step of in vivo metabolism involves hydroxylation of the carbon α to the carbonyl followed by amide hydrolysis and loss of the elements of glyoxylic acid.
For orientation: Liver microsomes are vesicles of endoplasmic reticulum, rich in cytochrome P450 enzymes.

A short description of series [9]: In vitro metabolism of Anagrelide in human liver microsomes. Type of series: in vitro ADME.
Excerpt: as §1

Series [10] in a line: In vitro metabolism of Anagrelide in human whole blood. Type of series: in vitro ADME.
Excerpt: as §1

Series [11] is described as follows: In vitro metabolism of Anagrelide in human bone marrow cells. It is filed as in vitro ADME.
Excerpt: as §1

The nature of series [12]: In vitro metabolism of Anagrelide in rat intestinal mucosa. Type of series: in vitro ADME.
Excerpt: as §1

On the set-up of series [13]: species or system Rhesus Monkeys. As to conditions: rhesus monkey, in vivo. The text has this: In a recent pharmacokinetic and excretion study of [^14C]
The conditions of series [14]: clinical use of Anagrelide; cited from earlier work.
For series [15] the following is noted: cited from earlier work.

Where a name gives a salt, the structure may show the parent alone.

Regarding `Br.NC1=Nc2ccc(Cl)c(Cl)c2CN1` [2-amino-5,6-dichloro-3,4-dihydroquinazoline hydrobromide], the solubility in water entry in [1] is on record as “water soluble”. The circulating platelet levels result in series [2] (6- to 8-month old mice, daily intraperitoneal injection) is given as “dose-dependent decrease”. In [2] (mice, 100 μg/day intraperitoneal), the “time to decrease in platelet counts” value is 24 to 48 h. The “platelet counts stabilized level” value in series [2] (mice, 100 μg/day intraperitoneal, by day 5) is 50 % of normal. Further, the “apparent signs of toxicity or haemorrhaging” value in [2] (mice, high doses (300 μg)) is on record as “did not alter white blood cell counts, bleeding time or lead to any apparent signs of toxicity or haemorrhaging”. The “inhibition of megakaryocytic endoreplication” value in [3] is “profound inhibition”. In series [3] (compared with those reported for Anagrelide), the “dose for inhibition of megakaryocytic endoreplication relative to doses reported for Anagrelide” value was 500 times less. Moreover, the “effect on the CD15+ myeloid lineage” value in series [4] was “no effect”. The “inhibition of platelet aggregation” value in [5] was “did not inhibit platelet aggregation”.

For the compound `NC1=Nc2ccc(Cl)c(Cl)c2CN1` [2-amino-5,6-dichloro-3,4-dihydroquinazoline], the antihypertensive activity result in series [6] (cardiovascular screening) is “Only very mild antihypertensive activity”. Besides, the “side effects of inotropy and haemorrhaging associated with Anagrelide” value in series [6] (in vivo) was “without the side effects of inotropy and haemorrhaging”. In [7], the “reduction of platelet counts” value is on record as “active molecule for causing reduction of platelet counts”.

As to `O=C1CN2Cc3c(ccc(Cl)c3Cl)N=C2N1` [Anagrelide hydrochloride], the solubility in water entry in series [1] is on record as “nearly insoluble in water”.

As to `O=C1CN2Cc3c(ccc(Cl)c3Cl)N=C2N1` [Anagrelide, 6,7-dichloro-1,5-dihydroimidazo-[2,1-b]-quinazolin-2(3H)-one], the metabolism in vitro entry in [8], in [9], in [10], in series [11] and in [12] was “completely resistant to metabolism” in each case. In addition, the “detection of the human metabolite 2-amino-5,6-dichloro-3,4-dihydroquinazoline” value in series [13] is on record as “no human metabolite (2-amino-5,6-dichloro-3,4-dihydroquinazoline) was detected”. In addition, the “congestive heart failure (cardiovascular side effect incidence)” value in [14] is recorded as 1.5%. In series [14], the “palpitations (cardiovascular side effect incidence)” value is listed as 26.1%. For the same compound, the “tachycardia (cardiovascular side effect incidence)” value in series [14] is 7.5%. Moreover, the “vasodilation (cardiovascular side effect incidence)” value in [14] is recorded as less than 5%. Besides, in [15] (human subjects), the “Anagrelide dose excreted as unchanged drug in the urine” value is listed as less than 1%. Moreover, the “peak plasma concentrations of the parent drug” value in series [15] (human subjects) is on record as 6 ng/mL. Further, the “urinary radioactivity accounted for by a minimum of four to five metabolites” value in series [15] (human, in vivo) is reported as “over 75%”.

The values above are taken from US20030114673A1, “2-AMINO-5,6-DIHALO-3,4-DIHYDROQUINAZOLINES WITH BLOOD PLATELET REDUCING PROPERTIES” (priority 2002, published 2003).
